Measurements: patent US11472812B2, “Anti-cancer compounds targeting Ral GTPases and methods of using the same” (The Regents of the University of Colorado, a body corporate, priority 2014, dated 2022)
Entries after “also recorded” stand apart in the source; their conditions may differ. Like-named read-outs stand apart in the source and are kept apart here.

Tests used:
[1] = test system: H2122 human lung cancer cells; assay: H2122 xenograft tumor growth; format: in vivo, nude mice; details: i.p. daily except weekends, initiated 24 h after inoculation; RBC8 50 mg/kg/d; BQU57 and BQU85 5, 10, 20, and 50 mg/kg/d
Procedure: We next determined compound entry into tumor tissue. To do so, athymic nude mice (Ncr nu/nu; National Cancer Institute, Fredrick, Md.) were received at 5 to 6 weeks of age and were allowed to acclimate for 2 weeks in sterile micro isolator cages with constant temperature and humidity. Mice had free access to food and water. H2122 cells in log-phase growth were harvested on the day of use. Cells were suspended in un-supplemented RPMI 1640 medium and 0.1 mL (2×10^5 cells) was injected s.c. four sites per mice. For H358 xenografts, cells (5×10^6) were mixed with matrigel (20% final concentration) and 0.1 mL was inoculated s.c. per site. After cell inoculation, mice were monitored daily, weighed twice weekly and caliper measurements begun when tumors visible. Tumor volume was calculated by (L×W2)/2, where L is longer measurement of tumor and W is the smaller tumor measurement. Drug treatment started the day after inoculation. Compounds were dissolved in DMSO and injected i.p. daily except weekends at 10/20/50 mg/kg. […] The effect of the Ral inhibitors on xenograft tumor growth was then tested in nude mice. Mice were inoculated subcutaneously with H2122 human lung cancer cells and treated intraperitoneally with 50 mg/kg/d (except weekends) of RBC8 24 h post inoculation.

[2] = test system: H2122 human lung cancer cells; assay: Cellular uptake, LC/MS-MS of cell lysates; format: in vitro ADME; details: 10 μM, 1-60 min
Procedure: To quantitate how well the test compounds get into cells, H2122 human lung cancer cells were seeded at 3×10^5 cells per well in 6-well plates and let sit for 16 h. Compounds (10 μM) were individually dosed in triplicate; cells were then collected into 500 μl ice-cold ACN:MeOH:H2O (1:1:1) at different time points (1, 5, 15, 30 and 60 min). Drug concentrations in cell lysates were then determined using LC/MS-MS methods as described with respect to the pharmacokinetic and pharmacodynamic studies in mice, described in detail in Example 5, below.

H2122 cells = assay: Soft agar colony formation (anchorage-independent growth); format: cell-based, human; details: for further growth inhibition by drug after siRNA knockdown of RalA and RalB: H2122 cells with siRNA knockdown of RalA and RalB; for growth inhibition effect with overexpression of constitutively active RalAG23V or RalBG23V: H2122 cells, transient transfection
Procedure: (§1) The effects of RBC8 and BQU57 on human lung cancer cell growth were evaluated. Because Ral is well-known for its role in anchorage independence, we carried out growth inhibition assays in soft agar. Four human lung cancer cells H2122, H358, H460 and Calu6 were used in a series of experiments to determine drug uptake, biologic specificity, and effect. To measure growth inhibition of human lung cancer cells under anchorage-independent conditions in soft agar, cells were seeded into 6-well plates (coated with a base layer made of 2 ml of 1% low-melting-point agarose) at 15,000 cells per well in 3 ml of 0.4% low-melting-point agarose containing various concentration of drug. Two to four weeks (depending on cell line) after incubation, cells were stained with 1 mg/ml MTT and colonies were counted under a microscope.
(§2) For the chemo-genetic experiments, siRNA treated cells were seeded into soft agar in the presence of various concentrations of drug. For the overexpression experiments, H358 cells stably overexpressing FLAG, FLAG-RalA^G23V or FLAG-RalB^G23V were generated and cells were subjected to the soft agar colony formation assay in the presence of drug. Attempts to stably overexpress FLAG-RalA^G23V or FLAG-RalB^G23V in H2122 cells were unsuccessful and the rescue experiments with H2122 were carried out 72 hrs after the transient transfection with FLAG, FLAG-RalA^G23V or FLAG-RalB^G23V using the soft agar colony formation assay in the presence of drug.

H358 cells = assay: as above; format: cell-based, human; details: for further growth inhibition by drug after siRNA knockdown of RalA and RalB: H358 cells with siRNA knockdown of RalA and RalB; for growth inhibition effect with overexpression of constitutively active RalAG23V or RalBG23V: H358 cells, stable overexpression
Procedure: as §1, §2

RalB = molecular target: T1, RalB (Homo sapiens, UniProt P11234); assay: Ral activity pull-down assay with RalBP1 agarose beads in cells; format: cell-based; design: endogenous in cells; host or cells: H2122 and H358 human lung cancer cells; details: H2122 and H358 cells, 10 μM compound, 3 hrs
T1 sequence (P11234 1-206): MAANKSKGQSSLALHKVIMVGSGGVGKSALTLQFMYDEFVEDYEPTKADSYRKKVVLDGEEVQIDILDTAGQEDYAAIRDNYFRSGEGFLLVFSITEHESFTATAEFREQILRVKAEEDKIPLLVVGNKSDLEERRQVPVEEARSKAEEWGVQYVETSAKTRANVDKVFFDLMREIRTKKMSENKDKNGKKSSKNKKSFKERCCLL
Procedure: (§3) FIGS. 6A-6E show the cellular uptake of Ral inhibitors in vitro. H2122 human lung cancer cells were treated with 10 μM of RBC8 (FIG. 6A), BQU57 (FIG. 6B), BQU85 (FIG. 6C), and RBC5 (FIG. 6D). Cells were collected at different time points (1, 5, 15, 30 and 60 min), and drug concentrations in cells determined using LC/MS-MS methods (n=3 for each time point). […] Cells were grown under anchorage-independent conditions and treated with 10 μM compounds for 3 hours. Ral activity in cell lysates were then determined using the pull down assay with RalBP1 agarose beads. Data represent three independent experiments.
(§4) To confirm that Ral activity is inhibited in H2122 and H358 cells by drug treatment, we performed the Ral activity pull-down assay. Cells were treated with drug for 3 hrs, collected and Ral activity measured using the RalBP1 pull-down assay kit (Millipore #14-415). RBC8 and BQU57 but not RBC5 inhibited both RalA and RalB activity in both cell lines (FIG. 6E).

RalA = molecular target: T2, RalA (Homo sapiens, UniProt P11233); assay: as above; format: cell-based; design: endogenous in cells; host or cells: H2122 and H358 human lung cancer cells; details: H2122 and H358 cells, 10 μM compound, 3 hrs
T2 sequence (P11233 1-206): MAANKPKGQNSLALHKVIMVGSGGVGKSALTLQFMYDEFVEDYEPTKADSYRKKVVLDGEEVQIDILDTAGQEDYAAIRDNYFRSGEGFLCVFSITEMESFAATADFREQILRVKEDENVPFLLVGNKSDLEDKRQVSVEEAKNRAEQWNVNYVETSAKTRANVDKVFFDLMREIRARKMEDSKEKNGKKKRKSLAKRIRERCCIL
Procedure: as §3, §4

Compound	xenograft tumor growth inhibition [1]	cellular uptake [2]	further growth inhibition by drug after siRNA knockdown of RalA and RalB (H2122 cells)	growth inhibition effect with overexpression of constitutively active RalAG23V or RalBG23V (H2122 cells)	IC50 (H2122 cells; Homo sapiens, NCI-H2122, read-out: IC50 (50% reduction in colony number))	further growth inhibition by drug after siRNA knockdown of RalA and RalB (H358 cells)	growth inhibition effect with overexpression of constitutively active RalAG23V or RalBG23V (H358 cells)	IC50 (H358 cells; Homo sapiens, NCI-H358, read-out: IC50 (50% reduction in colony number))	inhibition of RalB activity (RalB)	inhibition of RalA activity (RalA)	IC50 (H2122 cells; H2122, soft agar, 2-4 weeks, read-out: IC50 (50% reduction in colony number))	IC50 (H358 cells; H358, soft agar, 2-4 weeks, read-out: IC50 (50% reduction in colony number))
Cc1nn(C)c2c1C(c1ccc(C(F)(F)F)cc1)C(C#N)=C(N)O2 (centres unmarked) [BQU57, 6-amino-1,3-dimethyl-4-(4-(trifluoromethyl)phenyl)-1,4-dihydropyrano[2,3-c]pyrazole-5-carbonitrile]	dose-dependent growth inhibition effects were observed; also recorded: inhibited xenograft tumor growth	readily get into cells	did not result in significant further inhibition	rescue	2000 nM	did not result in significant further inhibition	rescue	1300 nM	inhibited	inhibited	–	–
COc1ccc(OC)c(C2C(C#N)=C(N)Oc3n[nH]c(-c4ccc5ccccc5c4)c32)c1 (centres unmarked) [RBC8]	inhibited xenograft tumor growth	readily get into cells	did not result in significant further inhibition	rescue	–	did not result in significant further inhibition	rescue	–	inhibited	inhibited	3500 nM	3400 nM
